Data published in PubChem BioAssay (NCI).
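Growth conditions: 96-well plates. Treatment: test compound, 48 hours, 5 concentrations. Analysis: linear interpolation between bracketing concentrations; unreached endpoints set to highest concentration. Definition used: TGI = concentration required for complete inhibition of growth.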

Assays:
Assay in all cases: growth of human tumour cells (NCI), 48 h
COLO 205 colon = tested on: COLO 205 colon
CCRF-CEM leukemia = tested on: CCRF-CEM leukemia
A498 renal = tested on: A498 renal
SF-268 CNS = tested on: SF-268 CNS
HOP-62 NSCLC = tested on: HOP-62 NSCLC
OVCAR-4 ovarian = tested on: OVCAR-4 ovarian
IGROV1 ovarian = tested on: IGROV1 ovarian
OVCAR-8 ovarian = tested on: OVCAR-8 ovarian
HT29 colon = tested on: HT29 colon
MCF7 breast = tested on: MCF7 breast
EKVX NSCLC = tested on: EKVX NSCLC
NCI-H23 lung = tested on: NCI-H23 lung
UO-31 renal = tested on: UO-31 renal
786-0 renal = tested on: 786-0 renal
TK-10 renal = tested on: TK-10 renal
BT-549 breast = tested on: BT-549 breast
MDA-MB-435 = tested on: MDA-MB-435
PC-3 prostate = tested on: PC-3 prostate
HS 578T breast = tested on: HS 578T breast
MDA-N = tested on: MDA-N

Row | SMILES | TGI (COLO 205 colon) [µM] | TGI (CCRF-CEM leukemia) [µM] | TGI (A498 renal) [µM] | TGI (SF-268 CNS) [µM] | TGI (HOP-62 NSCLC) [µM] | TGI (OVCAR-4 ovarian) [µM] | TGI (IGROV1 ovarian) [µM] | TGI (OVCAR-8 ovarian) [µM] | TGI (HT29 colon) [µM] | TGI (MCF7 breast) [µM] | TGI (EKVX NSCLC) [µM] | TGI (NCI-H23 lung) [µM] | TGI (UO-31 renal) [µM] | TGI (786-0 renal) [µM] | TGI (TK-10 renal) [µM] | TGI (BT-549 breast) [µM] | TGI (MDA-MB-435) [µM] | TGI (PC-3 prostate) [µM] | TGI (HS 578T breast) [µM] | TGI (MDA-N) [µM]
1 | COc1cc2c(cc1OC)-c1c3c(cc4c1[C@@H](C2)N(C)CC4)OCO3 | 32.1 | 39.4 | 16.9 | 38.2 | 20.7 | 22.8 | 49.9 | 31.9 | 28.8 | 27.3 | 37.3 | 26.1 | 49.3 | – | – | – | – | – | – | –
2 | O=c1[nH]c(Nc2cccc(Cl)c2)nc2nc[nH]c12 | > 100 | > 100 | > 100 | > 100 | > 100 | > 100 | > 100 | > 100 | > 100 | > 100 | > 100 | > 100 | > 100 | > 100 | > 100 | > 100 | > 100 | > 100 | > 100 | –
3 | CC1(C)C2CCC3(C2)CS(=O)(=O)N2OC231 (centres undefined) | 32.9 | > 100 | 44.5 | 47.2 | > 100 | – | 43.4 | 67.2 | 31.8 | – | 30.3 | 33.4 | 31.3 | 31.2 | 32.9 | – | – | – | – | –
4 | Oc1ccc(CCc2cc(O)cc(O)c2)cc1 | > 100 | – | > 100 | > 100 | > 100 | > 100 | > 100 | > 100 | > 100 | > 100 | > 100 | > 100 | > 100 | > 100 | > 100 | > 100 | > 100 | > 100 | > 100 | –
5 | CCCCOCn1c(=O)[nH]c(=O)c2cc(Br)ccc21 | > 100 | > 100 | > 100 | – | – | > 100 | > 100 | 88.6 | > 100 | > 100 | > 100 | – | 52.6 | > 100 | > 100 | – | > 100 | > 100 | – | > 100
6 | O=C(OC[C@H]1O[C@@H](OC(=O)c2cc(O)c(O)c(O)c2)[C@H](OC(=O)c2cc(O)c(O)c(O)c2)[C@@H](OC(=O)c2cc(O)c(O)c(O)c2)[C@@H]1OC(=O)c1cc(O)c(O)c(O)c1)c1cc(O)c(O)c(O)c1 | 46.3 | > 100 | 37.5 | 33.7 | 14.4 | 41.1 | > 100 | 24.9 | 73.7 | – | 70.9 | 7.71 | 19.2 | 21.2 | 66 | – | – | – | – | –
7 | C=CC[C@@]1(C(=O)OC)[C@H](Sc2ccccc2)C1(C)C | > 100 | > 100 | > 100 | > 100 | > 100 | > 100 | > 100 | > 100 | > 100 | 74.1 | > 100 | 97.3 | > 100 | > 100 | > 100 | > 100 | > 100 | > 100 | > 100 | –
8 | NNc1nncn1N | > 100 | 33.2 | > 100 | > 100 | > 100 | > 96.7 | > 100 | > 100 | > 100 | > 100 | > 100 | > 79.5 | > 100 | > 100 | > 100 | > 100 | 36.3 | > 100 | > 100 | –
9 | Cn1c2ccccc2c2c3c(c4c5ccccc5n(C)c4c21)C(=O)c1ccccc1C3=O | > 100 | > 100 | – | – | > 100 | > 100 | > 100 | > 100 | > 100 | > 100 | > 100 | 63.5 | > 100 | 31.7 | 81.3 | 52.6 | > 100 | > 100 | – | > 100
10 | CC(=Nc1ccncc1)C(C)=Nc1ccncc1 | 31 | 85.5 | > 100 | > 100 | 49.4 | 27.4 | 35.3 | > 100 | 38.2 | 38.3 | 48.7 | 32.6 | 30.8 | > 100 | > 100 | 42.3 | 97.7 | 38.9 | 98.9 | –
11 | OC12CC/C(=N/OCc3ccccc3)CC1c1ccccc12 (centres undefined) | > 100 | > 100 | – | > 100 | > 100 | > 100 | > 100 | > 100 | > 100 | – | > 100 | > 100 | > 100 | > 100 | > 100 | – | – | – | – | –
12 | Nc1cc(N2CCCC2)nc(=O)n1Cc1ccccc1 | > 100 | > 100 | – | > 100 | > 100 | > 100 | > 100 | > 100 | > 100 | > 100 | > 100 | > 100 | – | > 100 | > 100 | > 100 | > 100 | > 100 | – | –
13 | CN(C)CCCOCCn1c2c(c3ccccc31)CCCC2 | 32.3 | 30 | – | > 100 | 28.3 | 44.3 | 34 | 35.9 | 28.5 | 31.5 | 57.8 | 94.6 | 36.9 | 28.9 | 32.6 | – | 34.2 | 32.6 | 51.6 | 29
14 | O=c1[nH]nc(Cc2ccccc2)n1-n1cnnc1 | > 100 | > 100 | – | > 100 | > 100 | > 100 | > 100 | > 100 | > 100 | > 100 | > 100 | > 100 | > 100 | > 100 | > 100 | > 100 | > 100 | > 100 | – | > 100
15 | N#CC(NNC(=O)c1ccccc1O)c1cccc(O)c1 (centres undefined) | > 100 | > 100 | – | > 100 | > 100 | > 100 | > 100 | > 100 | > 100 | – | – | 21.3 | 5.63 | > 100 | > 100 | – | – | – | – | –
16 | COc1cccc(-c2cc(=O)c3ccc(C)nc3[nH]2)c1 | 0.247 | – | 2.34 | > 89.7 | > 64.6 | > 100 | > 95.1 | > 100 | > 100 | > 22.9 | > 100 | > 100 | > 100 | > 100 | > 100 | > 39.7 | 0.0335 | > 42 | > 100 | –
17 | COC(=O)[C@@H]1C[C@@]2(C3C=CN(C(=O)C(F)(F)F)C=C3)c3ccccc3N(C(=O)C(F)(F)F)[C@H]2N1C(=O)OC | > 100 | > 100 | > 100 | > 100 | > 100 | > 100 | > 100 | > 100 | – | > 100 | > 100 | > 100 | > 100 | > 100 | 60.5 | > 100 | > 100 | > 100 | > 100 | –
18 | Cc1c2c(OCCCCN3CCN(c4ncccn4)CC3)nn(C)c(=O)c2c(C)n1-c1ccccc1 | 34.8 | > 100 | 30.6 | 34.3 | 57.8 | 39.1 | 35 | 61.3 | > 100 | 31.4 | 36.6 | 37 | 30.8 | 34.7 | 33.5 | 34.5 | 40.5 | 37.3 | 67.8 | –
19 | CCc1c(C)c(C#N)c(=S)n(C2OC(CO)C(O)C(O)C2O)c1C (centres undefined) | > 100 | > 100 | > 100 | > 100 | > 100 | > 100 | > 100 | > 100 | > 100 | > 100 | > 100 | > 100 | > 100 | > 100 | > 100 | – | > 100 | > 100 | – | > 100
20 | COC(=O)[C@@]12CCCC(=O)[C@@H]1[C@H]1CCCC[C@H]12 | > 100 | > 100 | – | > 100 | > 100 | > 100 | > 100 | > 100 | > 100 | > 100 | > 100 | > 100 | > 100 | > 100 | > 100 | > 100 | > 100 | > 100 | – | > 100
21 | CC(=O)c1cc2ccccc2n(O)c1=N | > 100 | > 100 | > 100 | > 100 | > 100 | > 100 | > 100 | > 100 | > 100 | > 100 | > 100 | > 100 | – | > 100 | > 100 | – | > 100 | > 100 | > 100 | > 100
22 | CCOC(=O)C(/C=N\C(=S)Nc1ccc(OCC)cc1)=C(/O)c1ccccc1 | > 100 | > 100 | 88.4 | > 100 | > 100 | > 100 | > 100 | > 100 | > 100 | > 100 | > 100 | > 100 | – | > 100 | – | – | > 100 | > 100 | > 100 | > 100
23 | CCc1ccc2c(c1)CC1(C2)Cc2cc3c(cc2C1)C(=O)CC3 (centres undefined) | 17.5 | 8.31 | 46.4 | – | 78.5 | 65.4 | > 100 | 64.9 | 23.9 | > 100 | > 100 | 96.6 | 92.9 | 60.2 | > 100 | – | 8.53 | 64.1 | > 100 | –
24 | c1ccc2c(Cc3nnc4sc(SSc5nn6c(Cc7c[nH]c8ccccc78)nnc6s5)nn34)c[nH]c2c1 | 50.9 | > 100 | 44.2 | 67.2 | 30.2 | > 100 | 27.6 | 73.1 | 44.4 | 46.4 | > 100 | 34.7 | 46.7 | 47.6 | > 100 | – | 47.7 | > 100 | 56.8 | –
25 | COc1c2cc(C(C)(C)C)cc1Cc1cccc(c1O)Cc1cc(C(C)(C)C)cc(c1OC)Cc1cccc(c1O)Cc1cc(C(C)(C)C)cc(c1OC)Cc1cccc(c1O)C2 | > 100 | – | > 100 | > 100 | > 100 | – | – | > 100 | > 100 | > 100 | > 100 | – | > 100 | > 100 | – | – | > 100 | > 100 | – | > 100
26 | C[n+]1c2ccccc2c(C(=O)Nc2ccc(S(=O)(=O)N=C(N)N)cc2)c2ccccc21 | > 100 | – | > 100 | > 100 | > 100 | > 100 | > 100 | > 100 | > 100 | > 100 | > 100 | > 100 | > 100 | > 100 | > 100 | – | > 100 | > 100 | > 100 | > 100
27 | COc1ccc(OC)c2c1C1CCC(=O)N1CN2C(C)=O (centres undefined) | > 100 | > 100 | > 100 | > 100 | > 100 | > 100 | > 100 | > 100 | > 100 | > 100 | > 100 | > 100 | > 100 | > 100 | > 100 | – | > 100 | > 100 | > 100 | > 100
